The source made the active and inactive calls. The rule behind the calls is not given here.
Columns and labels:
[1] = biological target: T1, Transcriptional enhancer factor TEF-3 (Homo sapiens, UniProt Q15561); assay: Inhibition of FITC-labeled YAP peptide (61 to 100 residues) binding to TEAD4 (unknown origin) preincubated for 1 hr followed by FITC-labeled YAP peptide addition and measured after 30 mins by fluorescence polarization assay
[2] = tested on: Transcriptional enhancer factor TEF-3 (Homo sapiens), Q15561 [C367A]; assay: Binding affinity to TEAD4-YBD C367A mutant (unknown origin) assessed as change in melting temperature by SYPRO-dye based thermal shift assay
Sequence of Transcriptional enhancer factor TEF-3 (Homo sapiens), Q15561 [C367A] (Q15561 whole entry C367A): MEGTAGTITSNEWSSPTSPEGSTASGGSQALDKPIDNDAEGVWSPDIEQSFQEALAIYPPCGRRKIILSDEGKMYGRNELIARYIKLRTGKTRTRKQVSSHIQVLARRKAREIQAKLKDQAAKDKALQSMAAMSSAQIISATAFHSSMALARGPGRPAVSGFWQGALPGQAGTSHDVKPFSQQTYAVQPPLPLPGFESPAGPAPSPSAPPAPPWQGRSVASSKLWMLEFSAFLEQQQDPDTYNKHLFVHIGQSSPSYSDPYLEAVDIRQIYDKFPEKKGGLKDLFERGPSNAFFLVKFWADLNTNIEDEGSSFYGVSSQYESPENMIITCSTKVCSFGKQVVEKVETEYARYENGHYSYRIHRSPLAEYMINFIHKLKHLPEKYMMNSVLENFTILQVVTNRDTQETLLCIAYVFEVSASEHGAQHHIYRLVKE

[3] = tested on: Transcriptional enhancer factor TEF-3 (Homo sapiens), Q15561 [C410A]; assay: Binding affinity to TEAD4-YBD C410A mutant (unknown origin) assessed as change in melting temperature by SYPRO-dye based thermal shift assay
Sequence of Transcriptional enhancer factor TEF-3 (Homo sapiens), Q15561 [C410A] (Q15561 whole entry C410A): as the sequence (Q15561 whole entry C367A) above, with A367C, C410A counted along it

[4] = GSH reactivity in PBS assessed as GSH adduct formation at 1 mM after 8 hrs by UPLC-MS analysis; type: physicochemical; conditions: buffer, 1000 µM
[5] = organism: Homo sapiens; assay: Inhibition of TEAD transcriptional activity in human HCT116 cells assessed as reduction in CYR61 expression by qRT-PCR analysis; type: cell-based
[6] = biological target: T1, Transcriptional enhancer factor TEF-3; assay: Inhibition of human HEK293T cells derived YAP interaction with N-terminal His-tagged human TEAD4 YBD domain (217 to 434 residues) expressed in Escherichia coli C43 (DE3) cells at 25 to 200 uM incubated for 2 hrs with TEAD4 followed by YAP lysate addition and measured after 4 hrs by immunoblotting analysis
[7] = biological target: Tyrosine-protein kinase SYK (Homo sapiens) (UniProt P43405); assay: Inhibition of full length recombinant human Syk at 10 uM using poly(Glu, Tyr) 4:1 as substrate after 40 mins in presence of [gamma33P]ATP by scintillation counting method relative to control
[8] = biological target: Ribosomal protein S6 kinase alpha-2 (Homo sapiens) (UniProt Q15349); assay: Inhibition of full length recombinant human Rsk3 at 10 uM using KKKNRTLSVA as substrate after 40 mins in presence of [gamma33P]ATP by scintillation counting method relative to control
Sequence of Ribosomal protein S6 kinase alpha-2 (Homo sapiens) (Q15349 whole entry): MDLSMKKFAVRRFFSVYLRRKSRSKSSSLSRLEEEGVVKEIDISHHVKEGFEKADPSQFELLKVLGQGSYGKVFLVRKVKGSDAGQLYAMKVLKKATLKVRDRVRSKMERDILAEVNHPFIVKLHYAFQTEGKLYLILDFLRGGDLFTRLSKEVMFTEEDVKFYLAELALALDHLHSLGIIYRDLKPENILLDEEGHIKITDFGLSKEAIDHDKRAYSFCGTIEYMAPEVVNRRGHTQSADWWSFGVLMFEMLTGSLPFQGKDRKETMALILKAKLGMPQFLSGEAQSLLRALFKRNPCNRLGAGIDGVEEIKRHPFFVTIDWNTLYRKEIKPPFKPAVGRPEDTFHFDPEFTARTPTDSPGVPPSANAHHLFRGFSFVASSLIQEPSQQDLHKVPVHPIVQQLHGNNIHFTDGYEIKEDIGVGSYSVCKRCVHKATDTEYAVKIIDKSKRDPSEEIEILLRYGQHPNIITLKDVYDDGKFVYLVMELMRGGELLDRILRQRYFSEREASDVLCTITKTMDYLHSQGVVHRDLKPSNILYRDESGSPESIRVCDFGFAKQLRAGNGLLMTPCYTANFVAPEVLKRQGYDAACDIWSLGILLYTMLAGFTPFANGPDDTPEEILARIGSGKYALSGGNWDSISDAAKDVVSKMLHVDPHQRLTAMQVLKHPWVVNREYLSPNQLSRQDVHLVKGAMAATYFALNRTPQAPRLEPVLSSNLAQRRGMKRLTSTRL

[9] = biological target: Inhibitor of nuclear factor kappa-B kinase subunit epsilon (Homo sapiens) (UniProt Q14164); assay: Inhibition of full length recombinant human IKKepsilon at 10 uM using casein as substrate after 40 mins in presence of [gamma33P]ATP by scintillation counting method relative to control
[10] = biological target: Insulin-like growth factor 1 receptor (Homo sapiens) (UniProt P08069); assay: Inhibition of recombinant human IGF1R activated (959 to end residues) at 10 uM using KKKSPGEYVNIEF as substrate after 40 mins in presence of [gamma33P]ATP by scintillation counting method relative to control
[11] = tested on: eIF-2-alpha kinase GCN2 (Homo sapiens), Q9P2K8 [E556G]; assay: Inhibition of full length recombinant human GCN2 E556G mutant at 10 uM using RSRSRSRSRSRSRSR as substrate after 40 mins in presence of [gamma33P]ATP by scintillation counting method relative to control
Sequence of eIF-2-alpha kinase GCN2 (Homo sapiens), Q9P2K8 [E556G] (Q9P2K8 whole entry E556G): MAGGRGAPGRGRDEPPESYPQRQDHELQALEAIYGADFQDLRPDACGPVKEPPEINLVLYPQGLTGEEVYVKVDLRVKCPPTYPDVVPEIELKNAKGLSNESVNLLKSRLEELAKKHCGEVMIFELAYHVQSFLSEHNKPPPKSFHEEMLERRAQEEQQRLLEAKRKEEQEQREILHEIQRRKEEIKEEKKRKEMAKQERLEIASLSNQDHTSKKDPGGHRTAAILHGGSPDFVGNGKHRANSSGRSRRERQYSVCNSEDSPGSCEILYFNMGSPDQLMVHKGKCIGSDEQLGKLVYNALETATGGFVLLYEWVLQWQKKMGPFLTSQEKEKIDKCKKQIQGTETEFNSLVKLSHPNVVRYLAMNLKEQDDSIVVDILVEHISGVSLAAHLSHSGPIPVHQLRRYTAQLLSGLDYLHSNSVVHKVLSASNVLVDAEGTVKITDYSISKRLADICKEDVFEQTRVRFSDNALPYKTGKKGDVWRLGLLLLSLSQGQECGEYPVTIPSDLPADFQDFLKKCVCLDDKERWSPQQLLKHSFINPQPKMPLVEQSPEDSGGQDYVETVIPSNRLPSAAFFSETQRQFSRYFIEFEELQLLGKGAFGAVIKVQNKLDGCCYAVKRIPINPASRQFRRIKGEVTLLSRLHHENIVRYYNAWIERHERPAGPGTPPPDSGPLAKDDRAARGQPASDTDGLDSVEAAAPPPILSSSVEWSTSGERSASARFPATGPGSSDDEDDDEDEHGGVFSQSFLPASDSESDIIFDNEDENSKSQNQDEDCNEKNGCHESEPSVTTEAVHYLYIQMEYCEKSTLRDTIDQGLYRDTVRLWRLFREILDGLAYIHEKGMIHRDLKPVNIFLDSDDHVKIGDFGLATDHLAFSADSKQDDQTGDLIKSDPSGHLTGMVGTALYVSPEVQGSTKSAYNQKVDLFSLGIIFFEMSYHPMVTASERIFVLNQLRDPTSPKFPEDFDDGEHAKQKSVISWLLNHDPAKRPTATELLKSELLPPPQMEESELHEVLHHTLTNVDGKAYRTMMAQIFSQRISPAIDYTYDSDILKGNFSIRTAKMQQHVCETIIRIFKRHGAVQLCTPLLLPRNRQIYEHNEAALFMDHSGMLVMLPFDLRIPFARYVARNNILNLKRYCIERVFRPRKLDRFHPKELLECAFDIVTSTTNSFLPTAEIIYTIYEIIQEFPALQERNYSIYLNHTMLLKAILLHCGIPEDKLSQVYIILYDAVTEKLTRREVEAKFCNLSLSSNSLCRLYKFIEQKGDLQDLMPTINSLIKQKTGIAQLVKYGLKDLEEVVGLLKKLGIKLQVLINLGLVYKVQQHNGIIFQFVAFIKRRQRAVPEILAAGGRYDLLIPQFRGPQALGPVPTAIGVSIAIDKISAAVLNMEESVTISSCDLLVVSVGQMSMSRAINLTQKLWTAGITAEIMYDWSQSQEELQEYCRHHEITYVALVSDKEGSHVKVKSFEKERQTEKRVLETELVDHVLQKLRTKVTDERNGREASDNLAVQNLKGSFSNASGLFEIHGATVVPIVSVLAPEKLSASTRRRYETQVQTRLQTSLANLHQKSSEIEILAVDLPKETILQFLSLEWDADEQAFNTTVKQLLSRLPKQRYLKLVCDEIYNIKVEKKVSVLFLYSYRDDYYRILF

[12] = biological target: Macrophage colony-stimulating factor 1 receptor (Homo sapiens) (UniProt P07333); assay: Inhibition of recombinant human FMS (538 to end residues) at 10 uM using KKKSPGEYVNIEFG as substrate after 40 mins in presence of [gamma33P]ATP by scintillation counting method relative to control
Sequence of Macrophage colony-stimulating factor 1 receptor (Homo sapiens) (P07333 whole entry): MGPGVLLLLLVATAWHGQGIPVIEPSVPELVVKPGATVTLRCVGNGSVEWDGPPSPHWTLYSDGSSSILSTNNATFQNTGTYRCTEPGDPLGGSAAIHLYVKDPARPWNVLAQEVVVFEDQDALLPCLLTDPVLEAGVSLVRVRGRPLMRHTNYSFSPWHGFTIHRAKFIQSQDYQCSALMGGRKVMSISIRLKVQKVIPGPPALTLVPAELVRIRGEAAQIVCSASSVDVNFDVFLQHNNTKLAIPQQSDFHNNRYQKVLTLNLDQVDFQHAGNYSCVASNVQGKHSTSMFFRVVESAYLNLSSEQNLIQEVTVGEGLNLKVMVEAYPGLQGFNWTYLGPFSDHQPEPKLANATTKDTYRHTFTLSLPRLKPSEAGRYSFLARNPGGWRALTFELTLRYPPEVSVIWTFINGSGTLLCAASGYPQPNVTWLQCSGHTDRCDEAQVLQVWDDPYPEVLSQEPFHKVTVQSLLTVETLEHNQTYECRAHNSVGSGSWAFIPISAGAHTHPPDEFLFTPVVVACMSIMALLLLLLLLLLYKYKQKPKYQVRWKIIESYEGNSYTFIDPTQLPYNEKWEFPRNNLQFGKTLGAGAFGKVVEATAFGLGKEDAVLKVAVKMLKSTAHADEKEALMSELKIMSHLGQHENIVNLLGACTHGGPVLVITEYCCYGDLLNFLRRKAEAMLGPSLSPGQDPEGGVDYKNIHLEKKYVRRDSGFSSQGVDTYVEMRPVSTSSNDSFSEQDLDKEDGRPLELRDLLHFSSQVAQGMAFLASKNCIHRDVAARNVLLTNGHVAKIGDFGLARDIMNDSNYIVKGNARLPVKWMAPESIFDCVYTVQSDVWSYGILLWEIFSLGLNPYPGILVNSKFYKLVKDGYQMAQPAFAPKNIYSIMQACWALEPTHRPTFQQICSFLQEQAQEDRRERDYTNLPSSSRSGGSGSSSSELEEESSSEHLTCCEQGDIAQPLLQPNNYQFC

[13] = biological target: Tyrosine-protein kinase Fgr (Homo sapiens) (UniProt P09769); assay: Inhibition of recombinant human FGR (2 to end residues) at 10 uM using poly(Glu, Tyr) 4:1 as substrate after 40 mins in presence of [gamma33P]ATP by scintillation counting method relative to control
[14] = biological target: Phosphatidylinositol 4-phosphate 5-kinase type-1 gamma (Homo sapiens) (UniProt O60331); assay: Inhibition of recombinant full-length human PIP5K1g at 10 uM using phosphatidylinositol 4-phosphate as substrate measured after 40 mins by fluorescence assay relative to control
[15] = biological target: Phosphorylase b kinase gamma catalytic chain, skeletal muscle/heart isoform (Homo sapiens) (UniProt Q16816); assay: Inhibition of full-length recombinant human PHKgamma1 at 10 uM using KKLNRTLSFAEPG as substrate after 120 mins by in presence of [gamma33P]ATP by scintillation counting method relative to control
[16] = organism: Homo sapiens; assay: Inhibition of recombinant human EphB2 A848S/K918E mutant (560 to end residues) using poly (Glu, Tyr) 4:1 as substrate at 10 uM after 40 mins in presence of [gamma-33P]-ATP by scintillation counting relative to control
[17] = biological target: Serine/threonine-protein kinase 17A (Homo sapiens) (UniProt Q9UEE5); assay: Inhibition of full-length recombinant human DRAK1 at 10 uM using KKLNRTLSFAEPG as substrate after 40 mins by in presence of [gamma33P]ATP by scintillation counting method relative to control
Sequence of Serine/threonine-protein kinase 17A (Homo sapiens) (Q9UEE5 whole entry, the tested form may be a part, canonical isoform): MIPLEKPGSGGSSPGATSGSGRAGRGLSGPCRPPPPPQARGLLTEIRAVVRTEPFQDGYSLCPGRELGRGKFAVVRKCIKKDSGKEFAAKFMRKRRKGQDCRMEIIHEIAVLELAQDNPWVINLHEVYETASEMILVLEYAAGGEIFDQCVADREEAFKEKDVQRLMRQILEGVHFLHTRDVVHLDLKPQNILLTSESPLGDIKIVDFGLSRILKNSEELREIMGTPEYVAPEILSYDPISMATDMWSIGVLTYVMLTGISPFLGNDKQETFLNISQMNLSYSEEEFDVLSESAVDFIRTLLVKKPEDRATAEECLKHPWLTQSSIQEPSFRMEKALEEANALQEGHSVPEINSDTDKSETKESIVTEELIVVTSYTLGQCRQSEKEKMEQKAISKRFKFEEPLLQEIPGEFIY

[18] = biological target: Casein kinase I isoform delta (Homo sapiens) (UniProt P48730); assay: Inhibition of recombinant human CK1delta (1 to 294 residues) at 10 uM using KRRRALS(p)VASLPGL as substrate measured after 40 mins in presence of [gamma33P]ATP by scintillation counting method relative to control
[19] = biological target: NUAK family SNF1-like kinase 2 (Homo sapiens) (UniProt Q9H093); assay: Inhibition of recombinant human full length NUAK2 at 10 uM using KKKVSRSGLYRSPSMPENLNRPR as substrate incubated for 40 mins in presence of [gamma-33P]-ATP by scintillation counting method relative to control
Sequence of NUAK family SNF1-like kinase 2 (Homo sapiens) (Q9H093 whole entry, the tested form may be a part): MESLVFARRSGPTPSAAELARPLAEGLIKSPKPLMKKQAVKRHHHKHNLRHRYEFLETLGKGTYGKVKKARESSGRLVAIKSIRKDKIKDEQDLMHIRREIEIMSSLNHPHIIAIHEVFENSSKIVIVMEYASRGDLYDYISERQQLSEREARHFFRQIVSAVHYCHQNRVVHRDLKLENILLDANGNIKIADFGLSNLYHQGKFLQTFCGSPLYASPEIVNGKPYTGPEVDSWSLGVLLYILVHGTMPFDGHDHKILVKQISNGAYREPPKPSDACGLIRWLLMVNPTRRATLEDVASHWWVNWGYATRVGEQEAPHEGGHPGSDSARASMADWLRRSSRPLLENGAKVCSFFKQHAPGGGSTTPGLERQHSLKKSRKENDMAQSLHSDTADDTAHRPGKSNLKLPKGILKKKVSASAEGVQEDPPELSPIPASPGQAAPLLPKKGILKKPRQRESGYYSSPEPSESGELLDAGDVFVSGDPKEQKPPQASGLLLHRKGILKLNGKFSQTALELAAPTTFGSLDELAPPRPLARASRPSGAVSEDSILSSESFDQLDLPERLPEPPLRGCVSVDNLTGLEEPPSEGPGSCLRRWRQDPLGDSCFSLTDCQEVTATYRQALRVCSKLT

[20] = biological target: Myosin-IIIb (Homo sapiens) (UniProt Q8WXR4); assay: Inhibition of recombinant full-length human MYO3B (1 to 326 residues) at 10 uM using RLGRDKYKTLRQIRQ as substrate measured after 40 mins in presence of [gamma33P]ATP by scintillation counting method relative to control
[21] = biological target: MAP kinase-interacting serine/threonine-protein kinase 2 (Homo sapiens) (UniProt Q9HBH9); assay: Inhibition of recombinant full-length human MNK2 at 10 uM using myelin basic protein as substrate measured after 40 mins in presence of [gamma33P]ATP by scintillation counting analysis relative to control
[22] = biological target: Mitogen-activated protein kinase kinase kinase kinase 5 (Homo sapiens) (UniProt Q9Y4K4); assay: Inhibition of recombinant full-length human MAP4K5 at 10 uM using myelin basic protein as substrate measured after 40 mins in presence of [gamma33P]ATP by scintillation counting method relative to control
[23] = biological target: Mitogen-activated protein kinase kinase kinase kinase 3 (Homo sapiens) (UniProt Q8IVH8); assay: Inhibition of recombinant human MAP4K3 (1 to 291 residues) at 10 uM using RLGRDKYKTLRQIRQ as substrate measured after 40 mins in presence of [gamma33P]ATP by scintillation counting method relative to control
[24] = biological target: Protein arginine N-methyltransferase 6 (Homo sapiens) (UniProt Q96LA8); assay: Inhibition of human PRMT6 at 10 uM relative to control
[25] = biological target: Histone acetyltransferase p300 (Homo sapiens) (UniProt Q09472); assay: Displacement of [3H]-acetyl-CoA from human P300 after 60 mins by microbeta counting method
[26] = biological target: Histone acetyltransferase KAT6A (Homo sapiens) (UniProt Q92794); assay: Inhibition of human MOZ at 10 uM relative to control

T1 sequence (Q15561 whole entry, the tested form may be a part): as the sequence (Q15561 whole entry C367A) above, with A367C counted along it

In the case of `C=CS(=O)(=O)Nc1ccc(Cc2ccc3ccccc3c2)cc1`, the Activity [1] is reported as “inactive”, the ΔTm [2] is reported as 1.2 °C and the ΔTm [3] is reported as 7.3 °C. The Activity [4] was “Not Active”, the inhibition [5] was “Dose-dependent effect” and the inhibition [6] was “Active”. For the same compound, the inhibition [7] was -4%, the inhibition [8] was 9% and the inhibition [9] was 5%. It also gave an inhibition [10] of 16%, an inhibition [11] of 3% and an inhibition [12] of 3%. It also gave an inhibition [13] of 15%, an inhibition [14] of -3% and an inhibition [15] of -3%. For the same compound, the inhibition [16] was 4%, the inhibition [17] was -1% and the inhibition [18] was 3%. The inhibition [19] was -6%, the inhibition [20] was 1% and the inhibition [21] was 7%. It also gave an inhibition [22] of 2%, an inhibition [23] of 9% and an inhibition [24] of 7%. It also gave an inhibition [25] of -3% and an inhibition [26] of 7%.
